Results: patent US11040031B2, “Pyrazole derivatives as MALT1 inhibitors” (Janssen Pharmaceutica NV, priority 2018, dated 2021)
Read-outs that look alike come from different tables or passages of the source.

Experiments:
[1] = tested on: Secretion of IL6 by TMD8 ABC-DLBCL cells; assay: Human IL6 Mesoscale assay (TMD-8); format: cell-based; details: read-out: Human IL6 Mesoscale assay (TMD-8)
Procedure: (§1) NFKB signaling regulates the secretion of multiple cytokines, including IL6 and IL10. Secretion of the cytokines IL6 and IL10 by TMD8 or OCI-LY3 ABC-DLBCL cells was measured using a mesoscale assay.
(§2) Cell passage number should not exceed 30. Cells should be kept between 0.5-2.5 million cells per mL during culturing and cells should be supplemented every 2-3 days with fresh 50 µM beta-mercaptoenthanol. No beta-mercaptoethanol was used during the mesoscale assay.
(§3) DMSO control wells were used to determine the maximum signal (High Control (HC)). […] Compounds and cells were incubated for 24 h at 37° C. and 5% CO2 (assay volume is 150 μL). After 24 h of incubation 50 μL of the supernatant was transferred to a MSD plate (V-Plex Proinflammation Panel 1 (human) kit, Mesoscale (MSD)) and incubated for 2 h with vigorous shaking (600 rpm) at room temperature. Following incubation, plates were washed 3× with PBS+0.05% Tween-20 and 25 μL detection antibody solution (IL6 & IL10 antibodies in diluent 3 (MSD)) was added per well followed by 2 h of incubation with vigorous shaking (600 rpm) at room temperature. After 3× washes with PBS+0.05% Tween-20, plates were incubated with 150 μL 2× Read Buffer T and read on SECTOR imager.

[2] = tested on: Secretion of IL10 by TMD8 ABC-DLBCL cells; assay: Human IL10 Mesoscale assay (TMD-8); format: cell-based; details: read-out: Human IL10 Mesoscale assay (TMD-8)
Procedure: as §1, §2, §3

[3] = tested on: OCI-Ly3 ABC-DLBCL cell line; assay: 4-day proliferation assay OCI-Ly3; format: cell-based; details: Homo sapiens, read-out: Anti-proliferation: OCI-LY-3 IC50
In short: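 10,000 OCI-Ly3 cells per well cultured 4 days at 37° C., 5% CO2 without beta-mercaptoethanol, at densities giving linear growth. Viability read by CellTiterGLO luminescence after 10 min at room temperature.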

[4] = molecular target: T1, full-length MALT1 protein (Strep-MALT1(1-824)-His) (Homo sapiens, UniProt Q9UDY8); assay: biochemical;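 also: fluorogenic LRSR-AMC substrate cleavage by MALT1, 50 min compound preincubation then 4 h reaction at RT, 11-point dilution from 30 µM, scaled between enzyme-free and untreated enzyme controls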
T1 sequence (Q9UDY8 1-824): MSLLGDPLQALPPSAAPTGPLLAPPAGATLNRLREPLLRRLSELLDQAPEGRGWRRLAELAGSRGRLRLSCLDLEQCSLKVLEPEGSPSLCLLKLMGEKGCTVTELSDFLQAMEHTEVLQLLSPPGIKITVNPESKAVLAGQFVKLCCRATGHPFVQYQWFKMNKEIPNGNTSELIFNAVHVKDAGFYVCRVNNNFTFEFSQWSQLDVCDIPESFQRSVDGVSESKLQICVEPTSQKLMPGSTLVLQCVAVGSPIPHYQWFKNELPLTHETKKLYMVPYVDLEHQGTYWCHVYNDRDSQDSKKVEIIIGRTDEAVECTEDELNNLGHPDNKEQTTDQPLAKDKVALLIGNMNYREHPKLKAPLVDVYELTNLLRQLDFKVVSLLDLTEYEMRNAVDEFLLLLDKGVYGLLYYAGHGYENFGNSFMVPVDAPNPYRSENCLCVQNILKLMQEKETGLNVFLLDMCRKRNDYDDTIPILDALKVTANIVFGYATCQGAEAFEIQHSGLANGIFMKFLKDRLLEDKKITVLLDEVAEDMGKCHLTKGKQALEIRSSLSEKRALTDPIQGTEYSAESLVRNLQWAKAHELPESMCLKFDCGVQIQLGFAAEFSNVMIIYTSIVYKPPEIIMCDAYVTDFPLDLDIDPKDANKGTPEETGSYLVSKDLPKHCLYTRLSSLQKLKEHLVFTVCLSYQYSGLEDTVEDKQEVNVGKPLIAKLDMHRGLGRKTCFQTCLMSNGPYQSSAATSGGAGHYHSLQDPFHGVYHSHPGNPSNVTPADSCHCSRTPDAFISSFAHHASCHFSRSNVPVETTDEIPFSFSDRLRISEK
Procedure: MALT1 protease activity was assessed in an in vitro assay using a tetrapeptide as substrate and full-length MALT1 protein (Strep-MALT1(1-824)-His) purified from baculovirus-infected insect cells. The tetrapeptide LRSR is coupled to AMC (7-amino-4-methylcoumarin) and provides a quenched, fluorescent substrate for the MALT1 protease (SM Biochemicals). Cleavage of AMC from the Arginine residue results in an increase in coumarin fluorescence measured at 460 nm (excitation 355 nm). […] Test compounds were spotted at 50 nL in 100% DMSO per well of a black 384-Proxiplate (Perkin Elmer). Test compound concentrations ranged from 30 μM to 0.5 nM using 11 dilution steps (1:3). Background signal was measured from control wells containing assay buffer without enzyme which functions as low control (LC). High control (HC) values were generated using the reaction with enzyme but no compound treatment. Compounds were pre-incubated with MALT1 enzyme for 50 minutes at RT. Substrate was added subsequently and fluorescence was measured in Labsystems fluoroskan at excitation 355 nm and emission 460 nm to determine time 0. The reaction was subsequently incubated for 4 h at RT and fluorescence was measured. […] The enzyme reaction was linear during the 4 h incubation period.
IC50 values were calculated using the following formula (Z prime should be >0.5):
From this an IC50 value (inhibitory concentration causing 50% inhibition) can be obtained. An estimate of the slope of the plot in terms of the Hill coefficient was also obtained.
With y=estimated response • UB=upper bound • LB=lower bound • h=hill

[5] = TMD8 cells, 24 h incubation, supernatant, MSD V-Plex
[6] = 96 h, 10,000 OCI-Ly3 cells per well, 4 days, CellTiterGLO

Row | Structure (SMILES) | IC50 [1, 5] [µM] | IC50 [2, 5] [µM] | IC50 [3, 6] [µM] | IC50 [4] [µM] | IC50 ([1]; TMD8, 24 h) [µM] | IC50 ([2]; TMD8, 24 h) [µM] | IC50 ([3]; OCI-Ly3, 96 h) [µM]
1 | Cc1ccnc(-n2ncc(C(=O)Nc3cnc(-n4nccn4)c(Cl)c3)c2C(F)(F)F)c1 [Cpd 22, N-(5-chloro-6-(2H-1,2,3-triazol-2-yl)pyridin-3-yl)-1-(4-methylpyridin-2-yl)-5-(trifluoromethyl)-1H-pyrazole-4-carboxamide] |  |  |  | 0.724 | 0.437 | 0.724 | 0.49
2 | Cc1ccc(-n2ncc(C(=O)Nc3cnc(-n4nccn4)c(Cl)c3)c2C(F)(F)F)nc1 [Cpd 23, N-(5-chloro-6-(2H-1,2,3-triazol-2-yl)pyridin-3-yl)-1-(5-methylpyridin-2-yl)-5-(trifluoromethyl)-1H-pyrazole-4-carboxamide] |  |  |  | 0.933 | 0.891 | 1.07 | 0.479
3 | Cc1ccc(-n2ncc(C(=O)Nc3cnc(-n4nccn4)c(Cl)c3)c2C(F)(F)F)cc1 [Cpd 27, N-(5-chloro-6-(2H-1,2,3-triazol-2-yl)pyridin-3-yl)-1-(p-tolyl)-5-(trifluoromethyl)-1H-pyrazole-4-carboxamide] | 1.2 | 1.38 | 3.89 | 0.851 |  |  | 
4 | Cc1ccccc1-n1ncc(C(=O)Nc2cnc(-n3nccn3)c(Cl)c2)c1C(F)(F)F [Cpd 29, N-(5-chloro-6-(2H-1,2,3-triazol-2-yl)pyridin-3-yl)-1-(o-tolyl)-5-(trifluoromethyl)-1H-pyrazole-4-carboxamide] | 0.135 | 0.132 | 1.23 | 0.151 |  |  | 
5 | N#Cc1cc(NC(=O)c2cnn(-c3ncc(F)cc3Br)c2C(F)(F)F)cnc1-n1nccn1 [Cpd 34, 1-(3-Bromo-5-fluoropyridin-2-yl)-N-(5-cyano-6-(2H-1,2,3-triazol-2-yl)pyridin-3-yl)-5-(trifluoromethyl)-1H-pyrazole-4-carboxamide] |  |  |  | 0.145 | 0.407 | 0.631 | 0.457
6 | N#Cc1cc(NC(=O)c2cnn(-c3ccncc3Cl)c2C(F)(F)F)cnc1-n1nccn1 [Cpd 45, 1-(3-chloropyridin-4-yl)-N-(5-cyano-6-(2H-1,2,3-triazol-2-yl)pyridin-3-yl)-5-(trifluoromethyl)-1H-pyrazole-4-carboxamide] | 0.162 | 0.339 | 4.79 | 0.087 |  |  | 
7 | N#Cc1cc(NC(=O)c2cnn(-c3c(Cl)cncc3Cl)c2C(F)(F)F)cnc1-n1nccn1 [Cpd 48, N-(5-cyano-6-(2H-1,2,3-triazol-2-yl)pyridin-3-yl)-1-(3,5-dichloropyridin-4-yl)-5-(trifluoromethyl)-1H-pyrazole-4-carboxamide] |  |  |  | 0.204 | 1.62 | 0.513 | 3.63
8 | N#Cc1cc(NC(=O)c2cnn(-c3cccc4c3OCCO4)c2C(F)(F)F)cnc1-n1nccn1 [Cpd 49, N-(5-cyano-6-(2H-1,2,3-triazol-2-yl)pyridin-3-yl)-1-(2,3-dihydrobenzo[b][1,4]dioxin-5-yl)-5-(trifluoromethyl)-1H-pyrazole-4-carboxamide] | 0.145 | 0.151 | 0.437 | 0.148 |  |  | 
9 | N#Cc1cc(NC(=O)c2cnn(-c3cccc4c3OCO4)c2C(F)(F)F)cnc1-n1nccn1 [Cpd 59, 1-(benzo[d][1,3]dioxol-4-yl)-N-(5-cyano-6-(2H-1,2,3-triazol-2-yl)pyridin-3-yl)-5-(trifluoromethyl)-1H-pyrazole-4-carboxamide] |  |  |  | 0.041 | 0.035 | 0.048 | 0.468
10 | Cc1cc(-n2ncc(C(=O)Nc3cnc(-n4nccn4)c(Cl)c3)c2C(F)(F)F)c(Cl)cn1 [Cpd 68, 1-(5-chloro-2-methylpyridin-4-yl)-N-(5-chloro-6-(2H-1,2,3-triazol-2-yl)pyridin-3-yl)-5-(trifluoromethyl)-1H-pyrazole-4-carboxamide] |  |  |  | 0.427 | 5.5 | 7.08 | 7.08

Results, then the compound that gave them:

Row | IC50 [1, 5] [µM] | IC50 [2, 5] [µM] | IC50 [3, 6] [µM] | IC50 [4] [µM] | IC50 ([1]; TMD8, 24 h) [µM] | IC50 ([2]; TMD8, 24 h) [µM] | IC50 ([3]; OCI-Ly3, 96 h) [µM] | Structure (SMILES)
11 | 0.316 | 0.282 | 2.14 | 0.148 |  |  |  | COc1ncccc1-n1ncc(C(=O)Nc2cnc(-n3nccn3)c(Cl)c2)c1C(F)(F)F [Cpd 14, N-(5-Chloro-6-(2H-1,2,3-triazol-2-yl)pyridin-3-yl)-1-(2-methoxypyridin-3-yl)-5-(trifluoromethyl)-1H-pyrazole-4-carboxamide]
12 | 0.912 | 1.26 | 0.741 | 1.12 |  |  |  | N#Cc1cccc(-n2ncc(C(=O)Nc3cnc(-n4nccn4)c(Cl)c3)c2C(F)(F)F)c1 [Cpd 21, N-(5-chloro-6-(2H-1,2,3-triazol-2-yl)pyridin-3-yl)-1-(3-cyanophenyl)-5-(trifluoromethyl)-1H-pyrazole-4-carboxamide]
13 | 1.12 | 0.646 | 0.575 | 0.589 |  |  |  | COc1nccc(-n2ncc(C(=O)Nc3cnc(-n4nccn4)c(C#N)c3)c2C(F)(F)F)c1Cl [Cpd 32, 1-(3-Chloro-2-methoxypyridin-4-yl)-N-(5-cyano-6-(2H-1,2,3-triazol-2-yl)pyridin-3-yl)-5-(trifluoromethyl)-1H-pyrazole-4-carboxamide]
14 |  |  |  | 0.214 | 1.55 | 1.15 | 4.27 | N#Cc1cc(NC(=O)c2cnn(-c3nccc(Cl)c3Cl)c2C(F)(F)F)cnc1-n1nccn1 [Cpd 36, N-(5-Cyano-6-(2H-1,2,3-triazol-2-yl)pyridin-3-yl)-1-(3,4-dichloropyridin-2-yl)-5-(trifluoromethyl)-1H-pyrazole-4-carboxamide]
15 | 4.79 | 2.24 | 6.31 | 0.17 |  |  |  | Cc1nccc(-n2ncc(C(=O)Nc3cnc(-n4nccn4)c(C#N)c3)c2C(F)(F)F)c1Cl [Cpd 43, 1-(3-chloro-2-methylpyridin-4-yl)-N-(5-cyano-6-(2H-1,2,3-triazol-2-yl)pyridin-3-yl)-5-(trifluoromethyl)-1H-pyrazole-4-carboxamide]
16 | 0.49 | 1.23 | 11 | 0.389 |  |  |  | N#Cc1cc(NC(=O)c2cnn(-c3ncccc3Cl)c2C(F)(F)F)cnc1-n1nccn1 [Cpd 44, 1-(3-Chloropyridin-2-yl)-N-(5-cyano-6-(2H-1,2,3-triazol-2-yl)pyridin-3-yl)-5-(trifluoromethyl)-1H-pyrazole-4-carboxamide]
17 | 2.29 | 3.24 | 2.09 | 0.257 |  |  |  | Cc1nccc(-n2ncc(C(=O)Nc3cnc(-n4nccn4)c(Cl)c3)c2C(F)(F)F)c1Cl [Cpd 69, 1-(3-chloro-2-methylpyridin-4-yl)-N-(5-chloro-6-(2H-1,2,3-triazol-2-yl)pyridin-3-yl)-5-(trifluoromethyl)-1H-pyrazole-4-carboxamide]
18 |  |  |  | 0.204 | 4.47 | 3.55 | 6.61 | Cc1cc(-n2ncc(C(=O)Nc3cnc(-n4nccn4)c(C#N)c3)c2C(F)(F)F)c(Cl)cn1 [Cpd 70, 1-(5-chloro-2-methylpyridin-4-yl)-N-(5-cyano-6-(2H-1,2,3-triazol-2-yl)pyridin-3-yl)-5-(trifluoromethyl)-1H-pyrazole-4-carboxamide]
